Common to all, as to format: cell-based
Test [1] concerns Klebsiella pneumoniae (ATCC-70063). The experiment in a line: Agar diffusion, zone of inhibition. The settings on record: Klebsiella pneumoniae, ATCC70063; K.pneumoniae; compounds at 50 mg mL^−1. From the text:
(§1) The antibacterial and antifungal activities were reported utilizing the method described by the Clinical & Laboratory Standards Institute.^[ [31], [32] ^] Agar diffusion method was used to determine the antimicrobial activity of the synthesized substances. The media used were mueller hinton agar (MHA) for bacteria and sabouraud‐dextrose agar (SDA) for fungi (Merck), as recommended by the manufacturer.
(§2) The synthesized compounds were initially investigated for their antimicrobial activity to elucidate the potential therapeutic utility against various pathogenic microbes using the agar plate diffusion method. The compounds were tested at a concentration of 50 mg mL^−1, and the antibiotics (ampicillin, kanamycin, and amphotericin B) were used at 5 mg mL^−1. […] K.pneumoniae and B.cereus were resistant to ampicillin, while they were susceptible to kanamycin with inhibition values of 30 and 26 mm, respectively. No antimicrobial activity of the compounds was observed against E.faecalis, S.typhimurium, K.pneumoniae, and for the fungus compared to Amphotericin B (20 mm). […]
Klebsiella pneumoniae (ATCC-70063)
(§3) ATCC: American Type Culture Collection; NRRL: Northern Regional Research Laboratory The compounds 2(a-c) obtained could only be completely solubilised with dimethyl sulphoxide (DMSO) and the highest possible stock solutions of 50 mg.mL-1 were prepared. To these wells 50 μl of the previously prepared substances were transferred using sterile micropipette tips. For comparison, Ampicillin and kanamycin antibiotics for bacteria and Amphotericin B antibiotics for fungus were used as positive controls and DMSO was used as negative control. The prepared petri plates were kept at +4°C for about 1 hour and then the bacterial cultures were incubated at 37°C for 18-24 hours and mould cultures at 27-30°C for 48-72 hours. The zones formed were measured millimetrically with callipers. The experiments were performed with three repetitions. […]
Background: Agar diffusion results depend on both activity and mobility in agar.

The test system of test [2] is Micrococcus luteus (NRRL-B-1018). Put plainly: MBC by sub-culture from wells without growth. Particulars: NRRLB1018, M.luteus. The protocol: Micrococcus luteus (NRRL-B-1018) […]
(§4) ATCC: American Type Culture Collection; NRRL: Northern Regional Research Laboratory The compounds 2(a-c) obtained could only be completely solubilised with dimethyl sulphoxide (DMSO) and the highest possible stock solutions of 50 mg.mL-1 were prepared. […]
(§5) 3.1. Determination of Minimum Inhibition Concentration (MIC)
(§6) The minimum inhibition concentration (MIC) values of the compounds 2(a-c) against the test bacteria used in the study were determined according to the broth microdilution method.[1-2] MHB or SDB was used as test medium and bacterial and yeast suspensions were prepared at 0.5 Mc Farland concentration for each test bacteria. Double layer serial dilutions were prepared in "U" type 96-well microtiter plates. Medium+bacteria suspensions containing only medium in the first row, medium+bacteria in the second row and the final concentrations of the synthesised substances in the other rows between 25 mg.mL-1 and […] were added to the wells with a final volume of 200
(§7) μL. Ampicillin, Kanamycin and Amphotericin B standard antibiotics were used as positive controls.
(§8) Bacteria were incubated at 37±0.1 °C and C. albicans at 30±0.1 °C for 24-48 hours and the lowest concentration without growth was determined as MIC. Tests were performed in two parallel runs and mean values were given as a result. In order to estimate “the minimum bactericidal/fungicidal concentrations (MBC/MFC) of the synthesised acrylonitrile derivatives “needed to indicate […] killing of the original inoculum,” 10 μl was taken from the wells with no observed growth and further sub-cultured onto their agar media (MHA and SDA for bacterial and fungal strains, respectively).[3] […]

Test [3] has as its system Salmonella typhimurium (NRRL-B-4420). Put plainly: Agar diffusion, zone of inhibition. Particulars: Salmonella enterica; S.typhimurium; compounds at 50 mg mL^−1.
Text: as §1, §2
Salmonella typhimurium (NRRL-B-4420) […]
as §3

Test [4] concerns Staphylococcus aureus (ATCC 29213). The experiment in a line: MBC by sub-culture from wells without growth. The settings on record: ATCC29213, S.aureus. The protocol:
Staphylococcus aureus (ATCC 29213) […]
as §4, §5, §6, §7, §8

For test [5], the system named is Bacillus cereus (ATCC-10876). Put plainly: Broth microdilution MIC. The settings on record: Bacillus cereus, ATCC10876; B.cereus; read-out: MIC. The protocol: Bacillus cereus (ATCC-10876) […]
as §4, §5, §6, §7
Bacteria were incubated at 37±0.1 °C and C. albicans at 30±0.1 °C for 24-48 hours and the lowest concentration without growth was determined as MIC. Tests were performed in two parallel runs and mean values were given as a result. […]
For orientation: Dilution methods test growth across graded concentrations, often in twofold steps.

SMILES strings stand for the structures. Values after ≈ are worked out from the molar mass of the structure shown. A value given as a limit tells only on which side of the number the result lay.

Here are results for 3 molecules from article PMC12598805, “Crystal Structure–Activity Relationship of Some MeO Phenylacrylonitriles: Dual Antimicrobial–Cytotoxic Effects and in Silico Perspectives” (ChemistryOpen, 2025).

Regarding `COc1ccc(/C=C(\C#N)c2ccc(F)cc2)cc1` [2b], the zone of inhibition at 50 mg/mL in test [1] and in test [3] was below 6 mm in each case. Also, the figures for the MBC in test [2] and in test [4] were 12.5 mg/mL (≈ 49.4 mM) and 25 mg/mL (≈ 98.7 mM), respectively. The MIC in test [5] worked out at 12.5 mg/mL (≈ 49.4 mM).

For `COc1ccc(/C=C(\C#N)c2cc(C(F)(F)F)cc(C(F)(F)F)c2)cc1` [2c], the zone of inhibition at 50 mg/mL in test [1] and in test [3] was below 6 mm throughout. Moreover, the MBC in test [2] is 5 mg/mL (≈ 13.5 mM); in test [4], 12.5 mg/mL (≈ 33.7 mM). In addition, the MIC in test [5] came out at 12.5 mg/mL (≈ 33.7 mM).

Consider `COc1ccc(C=C(C#N)c2ccccc2)cc1` [2a, 3‐(4‐methoxyphenyl)‐2‐phenylacrylonitrile], for which the zone of inhibition at 50 mg/mL in test [1] and in test [3] was below 6 mm each time. Also, the MBC in test [2] is 6.25 mg/mL (≈ 26.6 mM); in test [4], 25 mg/mL (≈ 106 mM). In addition, the MIC in test [5] was 12.5 mg/mL (≈ 53.1 mM).

Broadly, the zone of inhibition is the size of the clear area around the sample on an inoculated plate. Lower therefore signals little suppression of growth. The term MBC denotes the lowest tested concentration that kills the bacteria rather than only halting them. Higher therefore signals less potent killing. The term MIC denotes the lowest concentration that inhibits growth of the organism.
